From paper PMC10763615, “Identification and engineering of potent cyclic peptides with selective or promiscuous binding through biochemical profiling and bioinformatic data analysis” (RSC Chemical Biology, 2023)
Where two headings read alike, the source gives them in different places.

Tests used:
FGF-R3C ECD [1] = target: T1, FGF-R3C ECD (Homo sapiens, UniProt P22607); experiment: biochemical; type: binding; design: DNA constructs for the extracellular domain (ECD) of human FGF-; HPC4 (C); made in house; host or cells: HEK 293-6E
T1 sequence (P22607 23-375 limits assumed): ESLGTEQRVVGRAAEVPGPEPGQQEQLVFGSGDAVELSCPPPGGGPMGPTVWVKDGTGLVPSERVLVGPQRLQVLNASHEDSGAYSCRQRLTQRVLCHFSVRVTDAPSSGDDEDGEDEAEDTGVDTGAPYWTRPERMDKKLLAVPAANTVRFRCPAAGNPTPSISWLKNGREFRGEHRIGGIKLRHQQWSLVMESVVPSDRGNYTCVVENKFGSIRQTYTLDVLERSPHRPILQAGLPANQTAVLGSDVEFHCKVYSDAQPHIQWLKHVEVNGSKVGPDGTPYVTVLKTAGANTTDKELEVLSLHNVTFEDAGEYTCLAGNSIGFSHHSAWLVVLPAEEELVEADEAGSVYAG
How it was run: (§1)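 Biolayer interferometry with biotinylated FGF-R ECD on streptavidin biosensors in PBS pH 7.4, 0.05% Tween-20, 0.01% BSA. Multi-concentration: purified peptide dilution series fitted to a multi-point KD model.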

FGF-R1C ECD [2] = target: T2, FGF-R1C ECD (Homo sapiens, UniProt P11362); experiment: biochemical; type: binding; design: DNA constructs for the extracellular domain (ECD) of human FGF-; HPC4 (C); made in house; host or cells: HEK 293-6E
T2 sequence (P11362 22-376 limits assumed): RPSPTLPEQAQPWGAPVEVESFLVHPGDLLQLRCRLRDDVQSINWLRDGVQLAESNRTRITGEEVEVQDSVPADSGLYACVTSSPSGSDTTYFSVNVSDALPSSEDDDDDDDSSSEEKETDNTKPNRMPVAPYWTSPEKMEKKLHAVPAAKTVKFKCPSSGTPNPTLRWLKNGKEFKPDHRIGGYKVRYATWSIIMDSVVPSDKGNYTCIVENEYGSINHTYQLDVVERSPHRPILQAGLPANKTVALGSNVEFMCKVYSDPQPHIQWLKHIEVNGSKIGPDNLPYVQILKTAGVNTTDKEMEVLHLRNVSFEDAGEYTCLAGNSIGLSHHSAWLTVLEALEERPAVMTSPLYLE
How it was run: as §1

FGF-R4 ECD [3] = target: T3, FGF-R4 ECD (Homo sapiens, UniProt P22455); experiment: multi-concentration BLI of purified peptides; type: binding
T3 construct: DNA constructs for the extracellular domain (ECD) of human FGF-; HPC4 (C); made in house; host or cells: HEK 293-6E
T3 sequence (P22455 22-369 limits assumed): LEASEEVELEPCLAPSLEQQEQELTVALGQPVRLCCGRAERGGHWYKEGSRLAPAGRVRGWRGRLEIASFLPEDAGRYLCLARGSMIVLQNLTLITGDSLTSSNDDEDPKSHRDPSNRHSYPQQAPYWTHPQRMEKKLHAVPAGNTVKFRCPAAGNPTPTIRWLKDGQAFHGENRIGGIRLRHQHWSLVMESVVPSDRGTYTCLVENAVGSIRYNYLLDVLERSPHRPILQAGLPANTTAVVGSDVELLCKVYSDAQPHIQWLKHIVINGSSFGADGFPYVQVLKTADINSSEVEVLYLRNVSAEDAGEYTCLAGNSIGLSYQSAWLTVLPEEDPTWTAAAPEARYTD
Protocol: (§2) KD affinity binding measurements were obtained by biolayer interferometry (BLI) instruments (Fortebio Octet HTX, or Sartorius Octet RH16 using either 8 or 16 channel mode.
(§3) For single concentration binding experiments, 50 μM peptide stocks in folding buffer were diluted 1:50 in mRNA display selection buffer (PBS pH7.4 supplemented with 0.05% Tween-20 and 0.01% BSA) in either a 96 well black plate, or a 384 well tilted bottom microplate (ForteBio). Biotinylated FGF-R protein was loaded onto Streptavidin-functionalised biosensors (ForteBio) and immersed into ~1 μM peptide to obtain association kinetics curves. Dissociation kinetics curves were obtained by subsequent immersion of ligand-associated loaded sensors into a 1:50 dilution of folding buffer in mRNA display selection buffer. Fitted KD data was adjusted for concentration as determined by UPLC-CAD.
(§4) For accurate multi-concentration KD determination, dilution series of each peptide were made, and association and dissociation kinetics curves were obtained as above for each concentration to fit a multi-point KD binding model. Data collection and analysis was performed using the Octet Instrument Control […]
(§5) concentration assay kinetics curves shown in supplementary Figure S 19-24.

FGF-R4 ECD [4] = target: T3, FGF-R4 ECD; experiment: single concentration BLI of crude peptides; type: binding; conditions: read-out: KD (4)
How it was run: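 BLI, streptavidin sensors loaded with biotinylated receptor ECD. Single-point: ~1 μM crude peptide, PBS pH7.4/0.05% Tween-20/0.01% BSA; association then dissociation in buffer. KD corrected for UPLC-CAD-determined concentration.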

FGF-R3C ECD [5] = target: T1, FGF-R3C ECD; experiment: biochemical
Protocol: as §2, §3, §4, §5

FGF-R1C ECD [6] = target: T2, FGF-R1C ECD; experiment: biochemical
Protocol: as §2, §3, §4, §5

[7] = crude NNK peptides, single concentration BLI (Table S3)
[8] = purified trimer-18 library peptides
[9] = crude T18 selection 1 (1:1:1) peptides, single concentration BLI (Table S4)

Row | SMILES | Kd (FGF-R3C ECD [1]) | Kd (FGF-R1C ECD [2]) | Kd (FGF-R4 ECD [3]; purified NNK library peptides) | Kd (FGF-R4 ECD [4]; [7]) | Kd (FGF-R3C ECD [5]) | Kd (FGF-R1C ECD [6]) | Kd (FGF-R4 ECD [3]; [8]) | Kd (FGF-R4 ECD [4]; [9]) | Kd (FGF-R3C ECD [1]; read-out: KD(3C)) | Kd (FGF-R1C ECD [2]; read-out: KD (1C)) | Kd (FGF-R3C ECD [5]; read-out: R3C KD, purified trimer-18 library peptides, multi-concentration BLI) | Kd (FGF-R1C ECD [6]; read-out: R1C KD, purified trimer-18 library peptides, multi-concentration BLI)
1 | CC[C@H](C)[C@@H]1NC(=O)[C@H](CCCCN)NC(=O)[C@H](Cc2ccc(O)cc2)NC(=O)[C@H]([C@@H](C)CC)NC(=O)[C@H](CO)NC(=O)[C@H](C(C)C)NC(=O)[C@H](CC(C)C)NC(=O)[C@@H](NC(=O)[C@H](CCSC)NC(C)=O)CSSC[C@@H](C(=O)NCC(=O)N[C@@H](CO)C(=O)NCC(=O)N[C@@H](CO)C(=O)N[C@@H](CC(=O)O)C(=O)N[C@@H](Cc2ccc(O)cc2)C(=O)N[C@@H](CCCCN)C(=O)N[C@@H](CC(=O)O)C(=O)N[C@@H](CC(=O)O)C(=O)N[C@@H](CC(=O)O)C(=O)N[C@@H](CC(=O)O)C(=O)N[C@@H](CCCCN)C(N)=O)NC(=O)[C@H]([C@@H](C)O)NC(=O)[C@H](CCCNC(=N)N)NC(=O)[C@H](CCSC)NC1=O [4.1] | 6120 nM | > 10000 nM | > 1000 nM | 193 nM | > 1000 nM | > 1000 nM |  |  |  |  |  | 
2 | CSCC[C@H](NC(C)=O)C(=O)N[C@H]1CSSC[C@@H](C(=O)NCC(=O)N[C@@H](CO)C(=O)NCC(=O)N[C@@H](CO)C(=O)N[C@@H](CC(=O)O)C(=O)N[C@@H](Cc2ccc(O)cc2)C(=O)N[C@@H](CCCCN)C(=O)N[C@@H](CC(=O)O)C(=O)N[C@@H](CC(=O)O)C(=O)N[C@@H](CC(=O)O)C(=O)N[C@@H](CC(=O)O)C(=O)N[C@@H](CCCCN)C(N)=O)NC(=O)[C@H](CCCNC(=N)N)NC(=O)[C@H](CC(C)C)NC(=O)[C@H](CCCCN)NC(=O)[C@H]([C@@H](C)O)NC(=O)[C@H](C(C)C)NC(=O)[C@H](CCCCN)NC(=O)[C@H](Cc2ccc(O)cc2)NC(=O)[C@H](Cc2c[nH]c3ccccc23)NC(=O)[C@H]([C@@H](C)O)NC(=O)[C@H](C(C)C)NC1=O [4.4] | > 10000 nM | > 10000 nM | > 1000 nM | 57 nM | > 1000 nM | > 1000 nM |  |  |  |  |  | 
3 | CSCC[C@H](NC(C)=O)C(=O)N[C@H]1CSSC[C@@H](C(=O)NCC(=O)N[C@@H](CO)C(=O)NCC(=O)N[C@@H](CO)C(=O)N[C@@H](CCC(=O)O)C(=O)N[C@@H](CCC(=O)O)C(=O)NCC(=O)N[C@@H](CO)C(=O)NCC(=O)N[C@@H](CO)C(=O)N[C@@H](CC(=O)O)C(=O)N[C@@H](Cc2ccc(O)cc2)C(=O)N[C@@H](CCCCN)C(=O)N[C@@H](CC(=O)O)C(=O)N[C@@H](CC(=O)O)C(=O)N[C@@H](CC(=O)O)C(=O)N[C@@H](CC(=O)O)C(=O)N[C@@H](CCCCN)C(N)=O)NC(=O)[C@H](CCCNC(=N)N)NC(=O)[C@H](CCCNC(=N)N)NC(=O)[C@H](Cc2c[nH]c3ccccc23)NC(=O)[C@H](CC(C)C)NC(=O)[C@H](CCCCN)NC(=O)[C@H](Cc2ccc(O)cc2)NC(=O)[C@H](Cc2ccc(O)cc2)NC(=O)[C@H](Cc2ccc(O)cc2)NC(=O)[C@H](CC(C)C)NC(=O)[C@H]([C@@H](C)O)NC(=O)[C@H]([C@@H](C)O)NC1=O [4.9] | 2250 nM | 699 nM |  |  | > 1000 nM | > 1000 nM | > 1000 nM | 1 nM |  |  |  | 
4 | CSCC[C@H](NC(C)=O)C(=O)N[C@H]1CSSC[C@@H](C(=O)NCC(=O)N[C@@H](CO)C(=O)NCC(=O)N[C@@H](CO)C(=O)N[C@@H](CCC(=O)O)C(=O)N[C@@H](CCC(=O)O)C(=O)NCC(=O)N[C@@H](CO)C(=O)NCC(=O)N[C@@H](CO)C(=O)N[C@@H](CC(=O)O)C(=O)N[C@@H](Cc2ccc(O)cc2)C(=O)N[C@@H](CCCCN)C(=O)N[C@@H](CC(=O)O)C(=O)N[C@@H](CC(=O)O)C(=O)N[C@@H](CC(=O)O)C(=O)N[C@@H](CC(=O)O)C(=O)N[C@@H](CCCCN)C(N)=O)NC(=O)[C@H](CCCCN)NC(=O)[C@H](CCCCN)NC(=O)[C@H](Cc2c[nH]c3ccccc23)NC(=O)[C@H](CC(C)C)NC(=O)[C@H](CC(C)C)NC(=O)[C@H](Cc2ccc(O)cc2)NC(=O)[C@H](Cc2ccc(O)cc2)NC(=O)[C@H](Cc2ccc(O)cc2)NC(=O)[C@H](CC(C)C)NC(=O)[C@H](Cc2c[nH]cn2)NC(=O)[C@H](CCCCN)NC1=O [4.10] |  |  |  |  |  |  | 2 nM | 1 nM | 928 nM | 1030 nM | 519 nM | > 1000 nM
5 | CSCC[C@H](NC(C)=O)C(=O)N[C@H]1CSSC[C@@H](C(=O)NCC(=O)N[C@@H](CO)C(=O)NCC(=O)N[C@@H](CO)C(=O)N[C@@H](CC(=O)O)C(=O)N[C@@H](Cc2ccc(O)cc2)C(=O)N[C@@H](CCCCN)C(=O)N[C@@H](CC(=O)O)C(=O)N[C@@H](CC(=O)O)C(=O)N[C@@H](CC(=O)O)C(=O)N[C@@H](CC(=O)O)C(=O)N[C@@H](CCCCN)C(N)=O)NC(=O)[C@H](Cc2c[nH]cn2)NC(=O)[C@H](CCCNC(=N)N)NC(=O)[C@H](CC(C)C)NC(=O)[C@H](C(C)C)NC(=O)[C@H](CCCCN)NC(=O)[C@H](Cc2ccc(O)cc2)NC(=O)[C@H](CC(C)C)NC(=O)[C@H](CC(C)C)NC(=O)[C@H](C(C)C)NC(=O)[C@H](CC(N)=O)NC1=O [4.11] | > 10000 nM | > 10000 nM |  |  | 115 nM | > 1000 nM | 543 nM | 11 nM |  |  |  | 
6 | CSCC[C@H](NC(C)=O)C(=O)N[C@H]1CSSC[C@@H](C(=O)NCC(=O)N[C@@H](CO)C(=O)NCC(=O)N[C@@H](CO)C(=O)N[C@@H](CC(=O)O)C(=O)N[C@@H](Cc2ccc(O)cc2)C(=O)N[C@@H](CCCCN)C(=O)N[C@@H](CC(=O)O)C(=O)N[C@@H](CC(=O)O)C(=O)N[C@@H](CC(=O)O)C(=O)N[C@@H](CC(=O)O)C(=O)N[C@@H](CCCCN)C(N)=O)NC(=O)[C@H](C(C)C)NC(=O)[C@H](Cc2c[nH]c3ccccc23)NC(=O)[C@H](Cc2c[nH]c3ccccc23)NC(=O)[C@H](CC(C)C)NC(=O)[C@H](CCCCN)NC(=O)[C@H](Cc2c[nH]c3ccccc23)NC(=O)[C@H](CCCNC(=N)N)NC(=O)[C@H](Cc2ccc(O)cc2)NC(=O)[C@H](C)NC(=O)[C@H](CC(=O)O)NC(=O)[C@H](CO)NC(=O)[C@H](CCC(=O)O)NC1=O [4.12] | > 10000 nM | 1570 nM |  |  | > 1000 nM | > 1000 nM | 15 nM | 10 nM |  |  |  | 
